Laboratory results from patent US4268630A, “Microbiological production of ketones from C3 -C6 alkanes” (priority 1979, dated 1981).

Tests used:
[1] = tested on: secondary alcohol dehydrogenase; assay: Activity of purified yeast-derived secondary alcohol dehydrogenase; format: biochemical, Pichia sp. NRRL Y-11,328; details: for ability to act as electron acceptor/carrier: purified enzyme
[2] = tested on: cell-free secondary alcohol dehydrogenase (SADH) system; assay: Cofactor requirement of cell-free soluble extracts oxidizing 2-butanol; format: biochemical
Experimental: To prepare the cell-free secondary alcohol dehydrogenase (SADH) system, the washed cells were disrupted with a Wave Energy Ultrasonic Oscillator, Model W201 (Wave Energy System, Inc., Newtown, Pa.) and centrifuged at 20,000× g. for 30 minutes. […] The enzyme activity was measured with a fluorescence spectrophotometer (Perkin Elmer, Model MPF 44A) by following the formation of reduced NAD (EX 340 nm, Em 460 nm). The formation of reduced NAD was also followed with an absorption spectrophotometer at 340 nm. The assay system (3 ml.) contained: potassium phosphate buffer pH 7.0; 150 μmol.; NAD 1 μmol.; a given amount of enzyme preparation; and secondary alcohol 10 μmol. The reaction was started by the addition of substrate. One unit of enzyme activity represents the reduction of one μmole NAD per minute. Protein concentrations were determined by the Lowry method (J. Biol. Chem., 193: 255-275 (1951)).

[3] = tested on: particulate P(40) fraction of Methylobacterium sp. (CRL-26, NRRL-B-11,222); assay: Hydroxylation of n-alkanes to secondary alcohols by particulate P(40) fraction; format: biochemical
From the text: (§1) Both cell suspensions (particulate fraction) and cell-free particulate fraction of methane-grown methylotroph microorganisms are capable of catalyzing the conversion of C3 -C6 n-alkanes to the corresponding alcohols including secondary alcohols. The conditions for preparing the cell suspensions or the cell-free particulate fractions from methane-grown methylotroph microorganisms is the same as described above. The cell-free particulate fraction requires the presence of oxygen and NADH as an electron donor. […] Tables XVI and XVII show the conversion of C3 -C6 n-alkanes to the corresponding secondary alcohols using cell suspensions and cell-free particulate fractions, respectively, of methane-grown methylotroph microorganisms.
(§2) ^(a) Particulate P(40) fraction was prepared as follows:
(§3) Cellsuspensions at 4° C. were disintegrated through a French
(§4) Pressure cell and centrifuged at 4000 × g. for 15 min. to remove
(§5) unbroken bacteria. The supernatant solution was then centrifuged at 40,00
(§6) × g. for 30 min. at 4° C. yielding the particulate P(40) and
(§7) soluble S(40) fractions. The products were identified by gas
(§8) chromatography and cochromatography with authentic standard.

[4] = tested on: particulate P(40) fraction of Methylococcus capsulatus (Texas, ATCC 19,069); assay: as above; format: biochemical
From the text: as §1, §2, §3, §4, §5, §6, §7, §8

[5] = target: particulate P(40) fraction of Methylosinus sp. (CRL-15, NRRL-B-11,202) (Methylosinus trichosporium, UniProt Q50541+Q9KX50+Q9KX51); assay: as above; format: biochemical
From the text: as §1, §2, §3, §4, §5, §6, §7, §8

[6] = tested on: particulate P(40) fraction of Methylosinus trichosporium (OB3b, NRRL-B-11,196); assay: as above; format: biochemical
From the text: as §1, §2, §3, §4, §5, §6, §7, §8

[7] = tested on: Methylosinus sporium 5 (NRRL B-11,197); assay: Oxidation of n-alkanes to methyl ketones by resting cell suspension; format: cell-based; details: cell suspension grown on methane
Experimental: (§9) The pH of the nutrient medium was adjusted to 7.0 by the addition of acid or base and 50 ml. samples of the nutrient medium were charged into a plurality of 300 ml. shaker flasks. […] The isolates had been maintained on methanol (0.4% V/V) agar plates or on agar plates under an atmosphere of methane and air having a 1:1 V/V gas ratio which had been transferred every two weeks. For growth on methanol, the medium was supplemented with 0.4% methanol. For growth on methane, the gaseous phase of the inoculated flasks was replaced with a gas mixture comprised on methane and air having a ratio of 1:1 on a V/V basis. The inoculated flasks were sealed air-tight and were incubated on a rotary shaker of orbital radius 2.5 cm. at 250 rpm and at 30° C. for two days until turbidity in the medium had developed. The cells were harvested by centrifugation at 10,000×g. at 4° C. for 30 minutes. The cell pellet was washed twice with a 0.05 M phosphate buffer at a pH of 7.0 (containing 0.02 M MgCl2). The washed cells were then suspended in a 0.05 M phosphate buffer at pH 7.0.
(§10) A 0.5 ml. sample of each washed cell suspension (2 mg. cells) was put into 10 ml. vials at 4° C. which were sealed with a rubber cap. The gaseous phase of the vials was removed with vacuum and then was replaced with a gas mixture of the substrate reactant (i.e., alkane or secondary alcohol) and oxygen at a 1:1 V/V ratio. (In the case of a liquid substrate, i.e., secondary alcohol, 10 μl of the substrate was put in the 10 ml. vials). The vials were then incubated at 30° C. on a rotary shaker at 300 rpm. Samples of product (1-3 μl) were withdrawn periodically with a microsyringe and the products were analyzed by gas chromatography (ionization flame detector column).

[8] = tested on: Methylocystis parvus OBBP (NRRL B-11,198); assay: as above; format: cell-based; details: cell suspension grown on methane
Experimental: as §9, §10

[9] = tested on: Methylobacterium organophilum XX; assay: as above; format: cell-based; details: cell suspension grown on methane
Experimental: as §9, §10

[10] = tested on: Methylobacter capsulatus Y (NRRL B-11,201); assay: as above; format: cell-based; details: cell suspension grown on methane
Experimental: as §9, §10

[11] = tested on: Methylomonas methanica SI (NRRL B-11,199); assay: as above; format: cell-based; details: cell suspension grown on methane
Experimental: as §9, §10

[12] = tested on: Methylosinus trichosporium OB3b (NRRL B-11,196); assay: as above; format: cell-based; details: cell suspension grown on methane
Experimental: as §9, §10

[13] = tested on: Methylomonas albus BG8 (NRRL B-11,200); assay: as above; format: cell-based; details: cell suspension grown on methane
Experimental: as §9, §10

[14] = tested on: Methylococcus capsulatus Texas (ATCC 19069); assay: as above; format: cell-based; details: cell suspension grown on methane
Experimental: The pH of the nutrient medium was adjusted to 7.0 by the addition of acid or base and 50 ml. samples of the nutrient medium were charged into a plurality of 300 ml. shaker flasks. The shaker flasks were inoculated with an inoculating loop of cells from an agar plate containing homogeneous colonies of the microorganisms on the plate (the purity of the isolates was confirmed by microscopic examination). The isolates had been maintained on methanol (0.4% V/V) agar plates or on agar plates under an atmosphere of methane and air having a 1:1 V/V gas ratio which had been transferred every two weeks. For growth on methanol, the medium was supplemented with 0.4% methanol. For growth on methane, the gaseous phase of the inoculated flasks was replaced with a gas mixture comprised on methane and air having a ratio of 1:1 on a V/V basis. The inoculated flasks were sealed air-tight and were incubated on a rotary shaker of orbital radius 2.5 cm. at 250 rpm and at 30° C. for two days until turbidity in the medium had developed. The cells were harvested by centrifugation at 10,000×g. at 4° C. for 30 minutes. The cell pellet was washed twice with a 0.05 M phosphate buffer at a pH of 7.0 (containing 0.02 M MgCl2). The washed cells were then suspended in a 0.05 M phosphate buffer at pH 7.0.
as §10, with “The vials were then incubated at 30° C. on a rotary shaker at 300 rpm.” left out

[15] = tested on: Methylosinus trichosporium (OB3b, NRRL-B-11,196); assay: Conversion of n-alkanes to secondary alcohols by cell suspensions; format: cell-based; details: growth substrate Methane
From the text: as §1

[16] = tested on: Methylomonas sp. (CRL-17, NRRL-B-11,209); assay: as above; format: cell-based; details: growth substrate Methane
From the text: as §1

[17] = tested on: Methylosinus sp. (CRL-15, NRRL-B-11,202); assay: as above; format: cell-based; details: growth substrate Methane
From the text: as §1

[18] = tested on: Methylococcus capsulatus (Texas, ATCC 19,069); assay: as above; format: cell-based; details: growth substrate Methane
From the text: as §1

[19] = tested on: Methylobacterium sp. (CRL-26, NRRL-B-11,208); assay: as above; format: cell-based; details: growth substrate Methane
From the text: as §1

[20] = tested on: Methylobacter capsulatus (Y, NRRL-B-11,201); assay: as above; format: cell-based; details: growth substrate Methane
From the text: as §1

[21] = tested on: Methylococcus capsulatus CRL M1 NRRL B-11,219; assay: Conversion of n-alkanes to oxidation products by cell suspensions; format: cell-based; details: methane-grown cell suspension, pH 7.0
Experimental: (§11) ^(a) Cell-suspensions of methanegrown methylotroph microorganisms
(§12) indicated in 0.15 M phosphate buffer, pH 7.0 incubated in the alkanes as
(§13) indicated at 3° C. The oxidation products were determined by g.l.c

[22] = tested on: Methylosinus trichosporium OB3b NRRL B-11,196; assay: as above; format: cell-based; details: methane-grown cell suspension, pH 7.0
Experimental: as §11, §12, §13

particulate P(40) fraction of Methylosinus sp. (CRL-15, NRRL-B-11,202), sequence (Q9KX50 40-431): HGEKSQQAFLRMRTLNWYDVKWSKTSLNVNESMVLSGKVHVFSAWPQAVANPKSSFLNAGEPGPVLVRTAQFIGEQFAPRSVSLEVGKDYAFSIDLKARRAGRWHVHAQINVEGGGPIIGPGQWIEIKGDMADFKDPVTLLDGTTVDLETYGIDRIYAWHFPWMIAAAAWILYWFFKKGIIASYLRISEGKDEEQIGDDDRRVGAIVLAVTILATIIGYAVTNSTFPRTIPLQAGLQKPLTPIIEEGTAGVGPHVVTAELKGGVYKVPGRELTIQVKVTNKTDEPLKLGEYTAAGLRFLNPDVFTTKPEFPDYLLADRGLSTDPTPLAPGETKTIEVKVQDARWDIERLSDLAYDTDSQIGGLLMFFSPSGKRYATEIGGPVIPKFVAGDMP
particulate P(40) fraction of Methylosinus sp. (CRL-15, NRRL-B-11,202), sequence (Q50541 1-252): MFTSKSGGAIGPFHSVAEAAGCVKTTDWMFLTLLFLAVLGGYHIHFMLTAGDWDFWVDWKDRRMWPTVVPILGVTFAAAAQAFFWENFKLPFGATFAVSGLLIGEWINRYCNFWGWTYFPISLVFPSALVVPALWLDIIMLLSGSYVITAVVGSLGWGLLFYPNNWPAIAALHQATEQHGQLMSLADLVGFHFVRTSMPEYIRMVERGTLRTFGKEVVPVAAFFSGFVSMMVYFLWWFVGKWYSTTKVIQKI
particulate P(40) fraction of Methylosinus sp. (CRL-15, NRRL-B-11,202), sequence (Q9KX51 1-256): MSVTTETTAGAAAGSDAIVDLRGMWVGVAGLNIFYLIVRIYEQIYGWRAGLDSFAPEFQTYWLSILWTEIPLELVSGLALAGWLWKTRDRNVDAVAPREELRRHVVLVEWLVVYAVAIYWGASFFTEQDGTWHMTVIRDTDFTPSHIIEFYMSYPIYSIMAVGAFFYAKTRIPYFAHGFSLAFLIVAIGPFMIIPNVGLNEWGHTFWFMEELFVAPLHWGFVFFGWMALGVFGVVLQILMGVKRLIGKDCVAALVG

| Structure (SMILES) | ability to act as electron acceptor/carrier [1] | effectiveness as cofactor for oxidation of 2-butanol [2] | Conversion Rates, n-alkane to methyl ketone [8] [μmoles/hr/mg protein] | Conversion Rates, n-alkane to methyl ketone [9] [μmoles/hr/mg protein] | Conversion Rates, n-alkane to methyl ketone [10] [μmoles/hr/mg protein] | Conversion Rates, n-alkane to methyl ketone [11] [μmoles/hr/mg protein] | Conversion Rates, n-alkane to methyl ketone [12] [μmoles/hr/mg protein] | Conversion Rates, n-alkane to methyl ketone [14] [μmoles/hr/mg protein] | Conversion Rate, n-alkane to secondary alcohol [15] [μmoles/hr/^5 mg. protein] | Conversion Rate, n-alkane to secondary alcohol [18] [μmoles/hr/^5 mg. protein] | Conversion Rate, n-alkane to secondary alcohol [19] [μmoles/hr/^5 mg. protein] | further results |
| --- | --- | --- | --- | --- | --- | --- | --- | --- | --- | --- | --- | --- |
| Cc1cc2nc3c(=O)[nH]c(=O)nc-3n(C[C@H](O)[C@H](O)[C@H](O)COP(=O)(O)OP(=O)(O)OC[C@H]3O[C@@H](n4cnc5c(N)ncnc54)[C@H](O)[C@@H]3O)c2cc1C [FAD, flavin adenine dinucleotide, reference compound] | could not act as electron carrier | not effective |  |  |  |  |  |  |  |  |  |  |
| N[C@@H](CCC(=O)N[C@@H](CS)C(=O)NCC(=O)O)C(=O)O [GSH, glutathione, reference compound] |  | not effective |  |  |  |  |  |  |  |  |  | inhibition of secondary alcohol dehydrogenase activity (in words) ([1]; primary alcohols tested at 10^-3 M): strongly inhibited |
| NC(=O)c1ccc[n+]([C@@H]2O[C@H](COP(=O)([O-])OP(=O)(O)OC[C@H]3O[C@@H](n4cnc5c(N)ncnc54)[C@H](OP(=O)(O)O)[C@@H]3O)[C@@H](O)[C@H]2O)c1 [NADP, reference compound] | could not act as electron carrier | not effective |  |  |  |  |  |  |  |  |  |  |
| O=C1C(Cl)=CC(=Nc2ccc(O)cc2)C=C1Cl [dichlorophenol iodophenol, 2,6-dichlorophenol indophenol, reference compound] | could not act as electron carrier | not effective |  |  |  |  |  |  |  |  |  |  |
| CCCC [n-Butane, n-butane] |  |  | 1.0 | 2.0 | 1.1 | 0.30 | 1.2 | 0.52 | 1.5 | 1.0 | 0.80 | Conversion Rate, n-alkane to secondary alcohol [3]: 0.61 μmoles/hr/2.0mg. of protein; Conversion Rate, n-alkane to secondary alcohol [4]: 0.92 μmoles/hr/2.0mg. of protein; Conversion Rate, n-alkane to secondary alcohol [5]: 0.89 μmoles/hr/2.0mg. of protein; Conversion Rate, n-alkane to secondary alcohol [6]: 0.79 μmoles/hr/2.0mg. of protein; Conversion Rates, n-alkane to methyl ketone [7]: 0.58 μmoles/hr/mg protein; Conversion Rates, n-alkane to methyl ketone [13]: 0.60 μmoles/hr/mg protein; Conversion Rate, n-alkane to secondary alcohol [16]: 1.2 μmoles/hr/^5 mg. protein; Conversion Rate, n-alkane to secondary alcohol [17]: 1.2 μmoles/hr/^5 mg. protein; Conversion Rate, n-alkane to secondary alcohol [20]: 0.09 μmoles/hr/^5 mg. protein; Conversion Rate to product 1-Butanol [21]: 0.4 μmoles/hr./mg./protein; Conversion Rate to product 2-Butanol [21]: 0.5 μmoles/hr./mg./protein; Conversion Rate to product 2-Butanone [21]: 0.2 μmoles/hr./mg./protein; Conversion Rate to product n-butanol [21]: 0.2 μmoles/hr./mg./protein; Conversion Rate to product 1-Butanol [22]: 0.3 μmoles/hr./mg./protein; Conversion Rate to product 2-Butanol [22]: 0.4 μmoles/hr./mg./protein; Conversion Rate to product 2-Butanone [22]: 0.1 μmoles/hr./mg./protein; Conversion Rate to product n-butanol [22]: 0.1 μmoles/hr./mg./protein |
| CCCCCC [n-Hexane, n-hexane] |  |  | 0.04 | 0.09 | 0.07 | 0.02 | 0.05 | 0.09 | 0.01 | 0.01 | 0.007 |  |
| CCCCC [n-Pentane, n-pentane] |  |  | 0.51 | 0.58 | 0.63 | 0.28 | 0.72 | 0.42 | 0.06 | 0.032 | 0.01 |  |
| C[n+]1c2ccccc2nc2ccccc21 [phenazine methosulfate, reference compound] | could not act as electron carrier | not effective |  |  |  |  |  |  |  |  |  |  |
